In patent US11198741B2, “Medicines for topic use based on sulfated hyaluronic acid as activating or inhibiting agent of the cytokine activity” (Fidia Farmaceutici S.p.A., priority 2009, dated 2021):

Legend:
[1] = tested on: IL-7; assay: Protein synthesis of IL-7 in human PBMC (SearchLight array); conditions: not stimulated or stimulated with LPS or PHA (10 μg/ml), 24 hours, FIG. 7: 1 mg/ml, vs HA
Protocol: For these experimentations, mononucleate cells of human peripheral blood (PBMC) were adopted, deriving from various donors for evaluating the effect of HAS on the production of the cytokines listed above, using:
The separation of the PBMC (Bøyum A., Scand J Clin Lab Invest 21 Suppl, 1968, 97:77-89) was effected using the product Ficoll-Paque PLUS (GE Healthcare) and following the protocol indicated by the supplier. At day zero 100,000 cells were plated per well (using plates with 96 wells) in 200 μl of medium RPMI 1640, to which 10% of fetal bovine serum, HEPES 10 mM, Glutamine 2 mM, 1% Penicillin-Streptomycin 100 U/ml, had been added. […] The cells were treated separately with the three compounds at a concentration of 0.1 mg/ml or 1 mg/ml. After 24 hours of incubation at 37° C. (5% CO2), 100 μl of supernatant were taken from each well in order to analyze the production of IL-2, IL-7, IL-10 and IL-12.
The quantification of the inflammation mediators was effected by means of the SearchLight® technology, using a Custom Human 9-flex Array plate following the protocol indicated by the supplier in the technical card.

[2] = assay type: in vitro ADME
Protocol: The skin used for effecting the experiments is obtained from the abdomen of patients between 30 and 50 years old, subjected to surgical abdominal reductions. The sections of skin with a complete thickness are frozen after the surgical intervention and preserved at −20° C. until the moment of the experiment, in which the samples are defrozen at room temperature and accurately separated from the adipose tissue. The skin is divided into square sections of 2.5 cm^2, immersed for a minute in water at a temperature of 60° C. and with the help of specific tweezers, the corneal layer and epidermis (SCE) are accurately separated from the underlying tissues. The samples obtained are analyzed with an optical microscope and discarded if punctures are found. The SCE is assembled in the lower part of a Franz cell with the epidermis facing downwards and the corneal layer in contact with the donor solution which is situated above. The permeation area is a circular surface of 0.636 cm^2. […] Each experiment is effected triply and the result is intended as the average of the 3, expressed as quantity of analyte which has crossed the surface unit of skin after 24 hours. […] The concentration of diclofenac was determined through reverse-phase HPLC analysis on an apparatus Agilent 1200 Series and UV detection (254 nm), C18 column, eluent acetonitrile/water/acetic acid 50/46/4 with a flow of 1.2 ml/min.

For “sulfated hyaluronic acid degree 3 [HAS3]”, the “synthesis of IL-7” value [1] was “significantly reducing” and the “total permeate quantity of diclofenac in 24 h” value [2] was “doubling”.
